Test results from the supplement of paper PMC11451515.

Tested on: NOMO1
Assay: cell viability relative to DMSO control; higher = less cytotoxic
Settings: 48 h
Outline: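 NOMO1 or SEM cells were plated at 500 cells/well and P12-Ichikawa cells at 1000 cells/well in 1536-well plates (5 μl), after each leukemia line had been adapted for at least four passages in each medium. Pin dosing delivered library compounds in DMSO at 11 threefold concentrations, 47 μM to 0.79 nM. CellTiter-Glo One luminescence was read after 48 h at 37°C. Viability is reported as a per-plate percentage of DMSO wells, with cell-free wells as background.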

[1] = HPLM + 10% dialyzed FBS, 0.000781 µM
[2] = HPLM + 10% dialyzed FBS, 0.00234 µM
[3] = HPLM + 10% dialyzed FBS, 0.00702 µM
[4] = HPLM + 10% dialyzed FBS, 0.0211 µM
[5] = HPLM + 10% dialyzed FBS, 0.0632 µM
[6] = HPLM + 10% dialyzed FBS, 0.19 µM
[7] = HPLM + 10% dialyzed FBS, 0.569 µM
[8] = HPLM + 10% dialyzed FBS, 1.71 µM
[9] = HPLM + 10% dialyzed FBS, 5.12 µM
[10] = HPLM + 10% dialyzed FBS, 15.4 µM
[11] = HPLM + 10% dialyzed FBS, 46.1 µM
[12] = RPMI 5 mM glucose + 10% FBS, 0.000781 µM
[13] = RPMI 5 mM glucose + 10% FBS, 0.00234 µM
[14] = RPMI 5 mM glucose + 10% FBS, 0.00702 µM
[15] = RPMI 5 mM glucose + 10% FBS, 0.0211 µM
[16] = RPMI 5 mM glucose + 10% FBS, 0.0632 µM
[17] = RPMI 5 mM glucose + 10% FBS, 0.19 µM
[18] = RPMI 5 mM glucose + 10% FBS, 0.569 µM
[19] = RPMI 5 mM glucose + 10% FBS, 1.71 µM
[20] = RPMI 5 mM glucose + 10% FBS, 5.12 µM
[21] = RPMI 5 mM glucose + 10% FBS, 15.4 µM
[22] = RPMI 5 mM glucose + 10% FBS, 46.1 µM
[23] = RPMI 5 mM glucose + 10% dialyzed FBS, 0.000781 µM
[24] = RPMI 5 mM glucose + 10% dialyzed FBS, 0.00234 µM
[25] = RPMI 5 mM glucose + 10% dialyzed FBS, 0.00702 µM
[26] = RPMI 5 mM glucose + 10% dialyzed FBS, 0.0211 µM
[27] = RPMI 5 mM glucose + 10% dialyzed FBS, 0.0632 µM
[28] = RPMI 5 mM glucose + 10% dialyzed FBS, 0.19 µM
[29] = RPMI 5 mM glucose + 10% dialyzed FBS, 0.569 µM
[30] = RPMI 5 mM glucose + 10% dialyzed FBS, 1.71 µM
[31] = RPMI 5 mM glucose + 10% dialyzed FBS, 5.12 µM
[32] = RPMI 5 mM glucose + 10% dialyzed FBS, 15.4 µM
[33] = RPMI 5 mM glucose + 10% dialyzed FBS, 46.1 µM

Row | SMILES | cell viability [1] [%] | cell viability [2] [%] | cell viability [3] [%] | cell viability [4] [%] | cell viability [5] [%] | cell viability [6] [%] | cell viability [7] [%] | cell viability [8] [%] | cell viability [9] [%] | cell viability [10] [%] | cell viability [11] [%] | cell viability [12] [%] | cell viability [13] [%] | cell viability [14] [%] | cell viability [15] [%] | cell viability [16] [%] | cell viability [17] [%] | cell viability [18] [%] | cell viability [19] [%] | cell viability [20] [%] | cell viability [21] [%] | cell viability [22] [%] | cell viability [23] [%] | cell viability [24] [%] | cell viability [25] [%] | cell viability [26] [%] | cell viability [27] [%] | cell viability [28] [%] | cell viability [29] [%] | cell viability [30] [%] | cell viability [31] [%] | cell viability [32] [%] | cell viability [33] [%]
1 | CC(C)OC(=O)/C1=C/N(CC(C)(C)C2=C1[NH]C3=CC=CC=C23)C(=O)C4=CC=C(F)C(=C4)F | 86.3 | 80.4 | 86 | 91.8 | 81.3 | 89.8 | 98.3 | 98 | 89.9 | 85.6 | 91.2 | 72.7 | 78.4 | 79.7 | 80.8 | 89 | 79.4 | 84.3 | 76.4 | 82.7 | 78.2 | 83.5 | 74.5 | 74.8 | 70.6 | 70.8 | 69.4 | 70.6 | 66.6 | 82 | 80.5 | 79.1 | 72.5
2 | C[S+](=O)([O-])Nc1ccc([N+](=O)[O-])cc1Oc1ccccc1 | 121 | 127 | 118 | 96.4 | 121 | 116 | 122 | 107 | 103 | 101 | 70.8 | 109 | 98.4 | 104 | 110 | 108 | 93.5 | 104 | 96.7 | 101 | 98.1 | 60.6 | 103 | 116 | 96 | 112 | 101 | 112 | 98.2 | 106 | 110 | 112 | 47.1
3 | CNCC(O)c1ccc(O)cc1 (stereo not given) | 114 | 106 | 116 | 103 | 116 | 125 | 129 | 109 | 128 | 113 | 134 | 96.7 | 104 | 118 | 116 | 112 | 103 | 125 | 118 | 127 | 120 | 121 | 106 | 122 | 109 | 119 | 104 | 118 | 108 | 113 | 125 | 130 | 120
4 | S=C(NCc1ccc2c(c1)OCO2)N1CCN(c2ncnc3c2oc2ccccc23)CC1 | 110 | 113 | 124 | 104 | 105 | 98.2 | 113 | 105 | 75.7 | 64.1 | 9.67 | 117 | 120 | 116 | 110 | 114 | 111 | 109 | 98.2 | 104 | 80 | 26.2 | 116 | 106 | 119 | 107 | 112 | 107 | 112 | 97.1 | 95.8 | 89 | 48.8
5 | c1ccc(CCCN2CCN(CCOC(c3ccccc3)c3ccccc3)CC2)cc1 | 91.4 | 95.1 | 101 | 100 | 85 | 100 | 92.9 | 103 | 83.1 | 78.9 | 53.9 | 80.3 | 83.3 | 96 | 99.5 | 94.9 | 90.3 | 85.6 | 76.1 | 83.3 | 78 | 73.8 | 89.3 | 97.3 | 92.7 | 96.5 | 89.7 | 92.5 | 85.5 | 86.2 | 86.3 | 66.8 | 24.3
6 | OC[C@@H](O)[C@@H](O)[C@H](O)[C@@H](O)CO | 96.4 | 116 | 129 | 133 | 131 | 131 | 130 | 132 | 129 | 123 | 135 | 106 | 114 | 108 | 111 | 130 | 109 | 107 | 110 | 114 | 112 | 114 | 102 | 112 | 99.5 | 111 | 113 | 137 | 122 | 108 | 135 | 127 | 131
7 | C[N]1C=C(C=N1)C2=C3\C=N/NC(=O)C4=C3C(=CC(=C4)NC(=O)[C@H](N)C5CCCCC5)[NH]2 | 99.8 | 111 | 97.7 | 91.1 | 104 | 101 | 91.6 | 78.3 | 72.6 | 35.7 | 36.6 | 95.1 | 97.2 | 93.5 | 87 | 100 | 97.9 | 84.3 | 86.4 | 80.2 | 26 | 29.1 | 101 | 90.4 | 105 | 89.7 | 90.7 | 87 | 95.4 | 94.1 | 60.3 | 20.5 | 29
8 | CC[C@]12CC[C@H]3[C@@H](CCC/4=C/C(=O)CC[C@H]34)[C@@H]1\C=C/[C@@]2(O)C#C | 118 | 116 | 132 | 133 | 128 | 113 | 137 | 146 | 133 | 138 | 124 | 110 | 120 | 120 | 123 | 122 | 138 | 133 | 121 | 112 | 130 | 139 | 116 | 133 | 122 | 124 | 126 | 111 | 137 | 133 | 138 | 140 | 132
9 | COc1ccc(-c2ccc3ncc4c(c3c2)n(-c2ccc(N3CCNCC3)c(C(F)(F)F)c2)c(=O)n4C)cn1 | 97.7 | 79.7 | 57.1 | 67 | 51.5 | 45.9 | 47.4 | 24.6 | 4.81 | 3.74 | 2.4 | 105 | 100 | 90.4 | 79.7 | 70 | 54.5 | 49.1 | 32.6 | 32 | 4.07 | 3.17 | 94.5 | 78.3 | 70.9 | 70.5 | 57 | 46.1 | 42.9 | 29.8 | 5.1 | 3.25 | 1.92
10 | COc1cc(OC2CCN(C)CC2)ccc1Nc1ncc2c(n1)n(C1CCCC1)c(=O)n2C | 80.9 | 86.8 | 107 | 85.9 | 96.8 | 90.8 | 103 | 108 | 93.6 | 87.7 | 2.59 | 82.7 | 82.5 | 75.4 | 84.8 | 78.1 | 92.8 | 83.2 | 76.5 | 81.1 | 76.9 | 18.4 | 76.6 | 88.9 | 90.4 | 83.6 | 81.2 | 95.2 | 91.6 | 100 | 91.7 | 60.4 | 16.1
11 | CCN1CCN(CC1)CC(=O)NC2=CC=C(C3=C2C4=C(S3)C=CC=C4)C5=C6O\C(=C/C(=O)C6=CC=C5)N7CCOCC7 | 108 | 121 | 122 | 123 | 117 | 124 | 121 | 94.2 | 79.7 | 63.6 | 75.3 | 116 | 115 | 123 | 120 | 128 | 129 | 130 | 120 | 98 | 74.5 | 86.1 | 120 | 120 | 131 | 118 | 128 | 128 | 109 | 110 | 77.8 | 64.3 | 99.1
12 | CCOC(=O)[C@@H](N)Cc1ccc(-c2cc(O[C@H](c3ccc(Cl)cc3-n3ccc(C)n3)C(F)(F)F)nc(N)n2)cc1.O=C(O)CNC(=O)c1ccccc1 | 114 | 111 | 121 | 125 | 114 | 118 | 114 | 116 | 94.2 | 102 | 5.68 | 108 | 96.2 | 109 | 101 | 94.3 | 90.3 | 97.6 | 103 | 95.4 | 90.1 | 7.52 | 102 | 117 | 102 | 100 | 97 | 98.6 | 122 | 105 | 98.3 | 88.6 | 4.2
13 | CNCCCC12CCC(c3ccccc31)c1ccccc12 | 106 | 102 | 107 | 110 | 111 | 99.9 | 101 | 90 | 95.2 | 63.5 | 18.3 | 104 | 94.9 | 92.2 | 97.2 | 95.2 | 84.4 | 85.8 | 98.3 | 79.2 | 80.9 | 60.6 | 94.5 | 87.9 | 88.2 | 106 | 91.6 | 91 | 85.1 | 94 | 76.2 | 74.4 | 38.4
14 | C[C@@]12C(=O)OC(=O)[C@@]1(C)C1CCC2O1 | 111 | 109 | 107 | 116 | 115 | 123 | 114 | 101 | 70.4 | 12.6 | 6.53 | 98.4 | 90.8 | 86.6 | 87.1 | 103 | 89.9 | 95.3 | 81.6 | 79.9 | 8.16 | 6.61 | 110 | 96.1 | 101 | 99.7 | 106 | 106 | 88.6 | 89.8 | 64.9 | 7.15 | 5.77
15 | NC\1=N\C(=O)N(\C=C1)[C@@H]2O[C@H](CO)[C@@H](O)[C@@H]2O | 76.3 | 79.8 | 47.7 | 62.9 | 33.9 | 30.6 | 31.5 | 25.8 | 20.3 | 20 | 6.26 | 76 | 83.3 | 83.1 | 74.8 | 54.1 | 24.4 | 25.1 | 21.3 | 14.6 | 8.18 | 3.59 | 66.8 | 68.6 | 53.4 | 49.9 | 29.8 | 18.3 | 25.8 | 14.7 | 16.6 | 12.6 | 7.75
